Experimental data: patent publication US8372408B2, “Use of Phaeodactylum algae extract for depigmenting the skin” (LVMH Recherche, priority 2007, dated 2013)

Columns and labels:
[1] = tested on: tyrosinase in B16F10 cells; conditions: cited from earlier work; for proteasome-dependent degradation of tyrosinase: B16F10 cells, Ando H. et al., J. Biol. Chem. (2004); for amount of melanin: melanocyte culture, previous study
[2] = tested on: 20S and 26S forms of the proteasome in MNT-1 melanocyte line; assay: Anti-proteasome western blot of treated MNT1 cells; type: cell-based, human; conditions: lysis of MNT-1 24 hours and 72 hours after treatment, FIGS. 2A and 2B
Experimental: (§1) 2.2 Treatment of MNT1 in Order to Assay the Proteasome, the Ubiquitin Proteins and the Tyrosinase by Western Blotting
(§2) 10^6 MNT1 cells/dish 35 mm in diameter, in quadruplicate
(§3) Treatment on D1 • Linoleic acid 25 μM • Palmitic acid 25 μM • Phaeodactylum 5 μg/ml
(§4) +1% bovine serum albumin (BSA)+Vitamin E (Vitamin E) 50 μM+Vitamin C (Vitamin C) 1 mM • Linoleic acid 25 μM • Palmitic acid 25 μM • Phaeodactylum 5 μg/ml
(§5) Preparation of the Lyzates on D2, D3 and D4
(§6) Recovery of the cell lawn in 150 μl of Laemmli 2× buffer+1% DTT (10 mM) by scraping.
Electrophoresis of the proteins is performed in a polyacrylamide minigel 1 mm to […] thick, under denaturing and reducing conditions, in batch buffer according to the Laemmli method (1970). […]
(§7) The bands are quantified by means of the Gels Analysts 3.01 software.
In parallel, using specific antibodies, the 20S and 26S forms of the proteasome were quantified by western blotting.
For the purpose of determining the cause of this activation of the peptidase activities of the proteasome, we evaluated via the western blotting technique the amount of proteasome in the homogenates obtained from the lysis of MNT-1 24 hours and 72 hours after their treatment with extracts of the alga Phaeodactylum tricornutum, with fatty acids, or with a proteasome-dependent proteolysis inhibitor Mg132).

[3] = tested on: ubiquitin proteins in MNT-1 melanocyte line; assay: Anti-ubiquitin western blot of treated MNT1 cells; type: cell-based, human; conditions: 24 hours or 72 hours after treatment, FIG. 3A, 3B
Experimental: as §1, §2, §3, §4, §5, §6
Electrophoresis of the proteins is performed in a polyacrylamide minigel 1 mm to […] thick, under denaturing and reducing conditions, in batch buffer according to the Laemmli method (1970). The gels containing 12% T, 2.7% C allow separation of the low molecular weight proteins ranging from 20 to 120 kDa. The gels containing 8% T; 2.7% C allow separation of the high molecular weight proteins from 35 to 250 kDa.
Next, this membrane is placed in contact with the primary antibody diluted to the optimum concentration in PBS-T with or without 5% milk (m/v) depending on the antibody, for 1 hour with stirring at room temperature or overnight at 4° C.
Under the action of peroxidase and an amplifier, the luminol is oxidized and goes into a transient excited state. […]
as §7

SMILES	proteasome-dependent degradation of tyrosinase [1]	amount of melanin [1]	amount of proteasome (expression or distribution of the 20S and 26S forms) [2]	level of ubiquitin proteins [3]
CCCCCCCCCCCCCCCC(=O)O [Palmitic acid]	reduced	inverse effect		
CCCCC/C=C\C/C=C\CCCCCCCC(=O)O [Linoleic acid]	stimulated	decrease	does not modify	not affected
